Experiments:
[1] = molecular target: T1, bovine carbonic anhydrase II (CAII) (Bos taurus, UniProt P00921); experiment: Carbonic anhydrase II inhibition assay (esterase activity on p-nitrophenyl acetate); format: biochemical; conditions: for remaining activity at 0.0001024 µM: 0.1024 nM compound; for remaining activity at 0.0001024 µM / remaining activity at 0.000512 µM / remaining activity at 0.00256 µM / remaining activity at 0.064 µM / remaining activity at 0.32 µM / remaining activity at 1.6 µM / remaining activity at 8 µM / remaining activity at 200 µM / remaining activity at 40 µM: source data of Fig. 2c, read-out: Normalized CA II Activity (Mean); for remaining activity at 0.000512 µM: 0.512 nM compound; for remaining activity at 0.00256 µM: 2.56 nM compound; for remaining activity at 0.064 µM: 64 nM compound; for remaining activity at 0.32 µM: 320 nM compound; for remaining activity at 1.6 µM: 1600 nM compound; for remaining activity at 8 µM: 8000 nM compound; for remaining activity at 200 µM: 200000 nM compound; for IC50: mean ± SE, three independent measurements, n.d: not detected; for remaining activity at 40 µM: 40000 nM compound
T1 construct: purchased Sigma-Aldrich C7749
Experimental: CAII inhibition assay was performed to measure the inhibitory effect of re-synthesized CBS-conjugates. The esterase activity of CAII with a chromogenic substrate p-nitrophenyl acetate (pNPA) was measured. The rates of hydrolysis were determined by an increase of absorption at 410 nm after incubating different compounds with CAII. Re-synthesized compounds were diluted in a serial spanning mM to μM concentrations. […] 5 µl of pNPA (50 mM in 20% DMSO) was added to the plate right before the measurement. The absorption was measured at 37 °C each 10 sec for 15 min using a Beckman Coulter’s Paradigm Detection Platform (Brea, USA). The initial Vmax was obtained from the increase of absorption and the Vmax was plotted against the inhibitor concentrations and logistic fitting was performed to obtain IC50 values using Origin 2019b (OriginLab) software.

[2] = molecular target: T2, bovine trypsin (Bos taurus, UniProt P00760); experiment: Trypsin inhibition assay (proteolytic activity on BApNA); format: biochemical
T2 construct: purchased Sigma-Aldrich T8003
T2 sequence (P00760 24-246): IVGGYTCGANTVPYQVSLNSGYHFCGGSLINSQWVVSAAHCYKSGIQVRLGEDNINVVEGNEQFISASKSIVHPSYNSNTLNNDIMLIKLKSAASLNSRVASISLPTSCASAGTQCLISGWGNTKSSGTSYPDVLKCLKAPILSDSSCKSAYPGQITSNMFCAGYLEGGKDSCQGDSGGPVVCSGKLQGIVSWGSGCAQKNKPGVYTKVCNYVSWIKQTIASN
Experimental: The inhibition by the benzamidine derivatives against trypsin was measured using an assay probing the enzyme proteolytic activity on the substrate Nα-Benzoyl-DL-arginine-4-nitroanilide hydrochloride (BApNA). […] 5 µl of BApNA solution (10 mM, dissolved in DMSO) were added immediately prior to the measurement. The final total volume was 100 µl per well. The measurements were performed in a Low Binding 384-well plate. The absorption was measured at 410 nm in intervals of 10 sec for 15 min at 37 °C using a Beckman Coulter’s Paradigm Detection Platform (Brea, USA). The measurements were performed in triplicate. The activity of trypsin was calculated by the hydrolysis rate of BApNA after subtraction of the background-hydrolysis rate. The curves were plotted as a function of the concentration of the inhibitor against the relative enzyme activity. Vmax was derived from the detected absorption signal for each concentration and logistic fitting was performed to obtain IC50 values using Origin 2019b (OriginLab).

[3] = Concentration 0.1024 nM, fraction of uninhibited activity
[4] = Concentration 0.512 nM, fraction of uninhibited activity
[5] = Concentration 2.56 nM, fraction of uninhibited activity
[6] = Concentration 64 nM, fraction of uninhibited activity
[7] = Concentration 320 nM, fraction of uninhibited activity
[8] = Concentration 1600 nM, fraction of uninhibited activity
[9] = Concentration 8000 nM, fraction of uninhibited activity
[10] = Concentration 40000 nM, fraction of uninhibited activity
[11] = Concentration 200000 nM, fraction of uninhibited activity
[12] = Concentration […], fraction of uninhibited activity

T1 sequence (P00921 whole entry): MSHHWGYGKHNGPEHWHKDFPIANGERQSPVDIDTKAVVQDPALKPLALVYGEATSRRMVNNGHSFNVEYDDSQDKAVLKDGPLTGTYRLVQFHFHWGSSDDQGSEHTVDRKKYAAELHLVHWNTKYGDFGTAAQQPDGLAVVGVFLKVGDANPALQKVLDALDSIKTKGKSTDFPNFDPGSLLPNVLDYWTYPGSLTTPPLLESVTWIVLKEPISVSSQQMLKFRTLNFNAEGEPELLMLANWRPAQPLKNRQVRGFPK

Compound: NS(=O)(=O)c1ccc(NC(=O)/C=C/c2ccc(-c3ccccc3C(F)(F)F)o2)cc1 [Compound C-0]
- remaining activity at 0.0001024 µM [1]: 93.3%
- remaining activity at 0.000512 µM [1]: 94%
- remaining activity at 0.00256 µM [1]: 93.6%
- remaining activity at 0.064 µM [1]: 84.9%
- remaining activity at 0.32 µM [1]: 65.6%
- remaining activity at 1.6 µM [1]: 45.7%
- remaining activity at 8 µM [1]: 38.2%
- remaining activity at 200 µM [1]: 20.9%
- IC50 [1]: 830 nM

Compound: NS(=O)(=O)c1ccc(NCc2ccc(C(=O)NCCNC(=O)/C=C/c3ccc(-c4ccccc4C(F)(F)F)o3)cc2)cc1 [Compound C-1]
- remaining activity at 0.0001024 µM [1]: 93.8%
- remaining activity at 0.000512 µM [1]: 93.6%
- remaining activity at 0.00256 µM [1]: 90.4%
- remaining activity at 0.064 µM [1]: 87.7%
- remaining activity at 0.32 µM [1]: 71.8%
- remaining activity at 1.6 µM [1]: 43%
- remaining activity at 8 µM [1]: 19.9%
- remaining activity at 40 µM [1]: 8.01%
- remaining activity at 200 µM [1]: 2.91%
- IC50 [1]: 1290 ± 90 nM

Compound: NS(=O)(=O)c1ccc(NC(=O)COc2ccccc2OCC(=O)NCCNC(=O)/C=C/c2ccc(-c3ccccc3C(F)(F)F)o2)cc1 [Compound C-2]
- remaining activity at 0.0001024 µM [1]: 91.3%
- remaining activity at 0.000512 µM [1]: 93.6%
- remaining activity at 0.00256 µM [1]: 96.1%
- remaining activity at 0.064 µM [1]: 83%
- remaining activity at 0.32 µM [1]: 61.4%
- remaining activity at 1.6 µM [1]: 43.3%
- remaining activity at 8 µM [1]: 25.6%
- remaining activity at 40 µM [1]: 15%
- remaining activity at 200 µM [1]: 14.3%
- improvement in the IC50 value ([1]; compared with sulfanilamide): 20 fold
- IC50 [1]: 670 nM

Compound: NS(=O)(=O)c1ccc(NC(=O)c2ccc(-n3cc(CCC(=O)NCCNC(=O)/C=C/c4ccc(-c5ccccc5C(F)(F)F)o4)nn3)cc2)cc1 [Compound C-4]
- remaining activity at 0.0001024 µM [1]: 96.8%
- remaining activity at 0.000512 µM [1]: 89%
- remaining activity at 0.00256 µM [1]: 89.3%
- remaining activity at 0.064 µM [1]: 89.8%
- remaining activity at 0.32 µM [1]: 90.3%
- remaining activity at 1.6 µM [1]: 65%
- remaining activity at 8 µM [1]: 42.3%
- remaining activity at 40 µM [1]: 33.8%
- remaining activity at 200 µM [1]: 9.19%

Compound: NS(=O)(=O)c1ccc(NC(=O)COCC(=O)NCCNC(=O)/C=C/c2ccc(-c3ccccc3C(F)(F)F)o2)cc1 [Compound C-5]
- remaining activity at 0.0001024 µM [1]: 101%
- remaining activity at 0.000512 µM [1]: 100%
- remaining activity at 0.00256 µM [1]: 96.7%
- remaining activity at 0.064 µM [1]: 90.2%
- remaining activity at 0.32 µM [1]: 78.3%
- remaining activity at 1.6 µM [1]: 56.6%
- remaining activity at 8 µM [1]: 33.3%
- remaining activity at 40 µM [1]: 19.1%
- remaining activity at 200 µM [1]: 11.8%
- IC50 [1]: 2020 ± 310 nM

Compound: N=C(N)c1ccc(CNC(=O)C2CCC(C(=O)NCCNC(=S)Nc3cccc(I)c3)CC2)cc1 (centres unmarked) [Compound T-3]
- remaining activity at 0.0001024 µM ([2]; Concentration 0.1024 nM, fraction of uninhibited activity, read-out: mean (Figure 3c, dose-response, relative trypsin activity)): 93.7%
- remaining activity at 0.000512 µM ([2]; Concentration 0.512 nM, fraction of uninhibited activity, read-out: mean (Figure 3c, dose-response, relative trypsin activity)): 99.6%
- remaining activity at 0.00256 µM ([2]; Concentration 2.56 nM, fraction of uninhibited activity, read-out: mean (Figure 3c, dose-response, relative trypsin activity)): 98.7%
- remaining activity at 0.064 µM ([2]; Concentration 64 nM, fraction of uninhibited activity, read-out: mean (Figure 3c, dose-response, relative trypsin activity)): 108%
- remaining activity at 0.32 µM ([2]; Concentration 320 nM, fraction of uninhibited activity, read-out: mean (Figure 3c, dose-response, relative trypsin activity)): 90.1%
- remaining activity at 1.6 µM ([2]; Concentration 1600 nM, fraction of uninhibited activity, read-out: mean (Figure 3c, dose-response, relative trypsin activity)): 56.5%
- remaining activity at 8 µM ([2]; Concentration 8000 nM, fraction of uninhibited activity, read-out: mean (Figure 3c, dose-response, relative trypsin activity)): 18.3%
- remaining activity at 40 µM ([2]; Concentration 40000 nM, fraction of uninhibited activity, read-out: mean (Figure 3c, dose-response, relative trypsin activity)): 3.2%
- remaining activity at 200 µM ([2]; Concentration 200000 nM, fraction of uninhibited activity, read-out: mean (Figure 3c, dose-response, relative trypsin activity)): 0.69%
- remaining activity at 650 µM ([2]; Concentration 650000 nM, fraction of uninhibited activity, read-out: mean (Figure 3c, dose-response, relative trypsin activity)): 0%
- improvement (of inhibitory effect) ([2]; compared with 4-aminomethyl benzamidine): 30 fold
- IC50 ([2]; mean ± SE, three independent measurements, n.d: not detected): 2100 ± 400 nM

Compound: N=C(N)c1ccc(CNC(=O)C2CCC(C(=O)NCCNC(=S)Nc3cccc(I)c3)CC2)cc1 (centres unmarked) [Compound T-4]
- mean (Figure 3c, dose-response, relative trypsin activity) [2, 3]: 0.916
- mean (Figure 3c, dose-response, relative trypsin activity) [2, 4]: 1.0035
- mean (Figure 3c, dose-response, relative trypsin activity) [2, 5]: 1.023
- mean (Figure 3c, dose-response, relative trypsin activity) [2, 6]: 0.976
- mean (Figure 3c, dose-response, relative trypsin activity) [2, 7]: 0.9546
- mean (Figure 3c, dose-response, relative trypsin activity) [2, 8]: 0.8556
- mean (Figure 3c, dose-response, relative trypsin activity) [2, 9]: 0.5625
- mean (Figure 3c, dose-response, relative trypsin activity) [2, 10]: 0.1537
- mean (Figure 3c, dose-response, relative trypsin activity) [2, 11]: 0.03111
- mean (Figure 3c, dose-response, relative trypsin activity) ([2]; Concentration 440000 nM, fraction of uninhibited activity): 0.01768
- mean (Figure 3c, dose-response, relative trypsin activity) [2, 12]: 0.9246

Compound: N=C(N)c1ccc(CNC2CC(=O)N(CC3CCC(C(=O)NCCNC(=S)Nc4cccc(I)c4)CC3)C2=O)cc1 (centres unmarked) [Compound T-5]
- mean (Figure 3c, dose-response, relative trypsin activity) [2, 3]: 1.021
- mean (Figure 3c, dose-response, relative trypsin activity) [2, 4]: 0.9691
- mean (Figure 3c, dose-response, relative trypsin activity) [2, 5]: 0.9977
- mean (Figure 3c, dose-response, relative trypsin activity) [2, 6]: 0.9529
- mean (Figure 3c, dose-response, relative trypsin activity) [2, 7]: 0.962
- mean (Figure 3c, dose-response, relative trypsin activity) [2, 8]: 0.9553
- mean (Figure 3c, dose-response, relative trypsin activity) [2, 9]: 0.8147
- mean (Figure 3c, dose-response, relative trypsin activity) [2, 10]: 0.4599
- mean (Figure 3c, dose-response, relative trypsin activity) [2, 11]: 0.1722
- mean (Figure 3c, dose-response, relative trypsin activity) ([2]; Concentration 650000 nM, fraction of uninhibited activity): 0.07286
- mean (Figure 3c, dose-response, relative trypsin activity) [2, 12]: 0.9721

From publication PMC10023787, “Trio-pharmacophore DNA-encoded chemical library for simultaneous selection of fragments and linkers” (Nature Communications, 2023)
